The record followed here is patent EP4818168A1, “FUSED RING COMPOUND, PHARMACEUTICAL COMPOSITION THEREOF AND USE THEREOF” (priority 2023, dated 2025).

The target in assay [1] is T1, AURKA (Homo sapiens, UniProt O14965).
T1 construct: endogenous in cells; host or cells: Jurkat cells
T1 sequence (O14965 1-403): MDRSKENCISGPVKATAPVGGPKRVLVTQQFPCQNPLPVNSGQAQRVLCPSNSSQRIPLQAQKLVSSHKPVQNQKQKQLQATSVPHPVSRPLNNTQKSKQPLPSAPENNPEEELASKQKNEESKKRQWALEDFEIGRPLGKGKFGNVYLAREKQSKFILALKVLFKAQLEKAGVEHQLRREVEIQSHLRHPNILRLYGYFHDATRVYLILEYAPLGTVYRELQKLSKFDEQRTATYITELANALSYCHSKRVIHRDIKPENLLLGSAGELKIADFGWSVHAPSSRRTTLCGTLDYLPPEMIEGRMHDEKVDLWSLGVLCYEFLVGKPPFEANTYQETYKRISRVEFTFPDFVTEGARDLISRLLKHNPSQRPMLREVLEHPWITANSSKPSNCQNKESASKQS
It is filed as cell-based. Conditions: Jurkat cells, 24 h, Table 1. The gist of the method:
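AURKA degradation read by western blot: band signal, fluorescent or chemiluminescent, curve-fitted to derive DC50. Cells were Jurkat, plated at 1×10^6 cells/500 µL with compound, then lysed and blotted onto nitrocellulose, primary antibody overnight at 4°C.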

Assay [2] concerns HCC1806 cells. As to the kind of experiment: CTG assay of compound inhibition on cell viability (HCC1806 cells). The conditions noted are these: Homo sapiens, HCC1806, 144 h, read-out: IC50 in HCC1806 Cells. Format: cell-based. As to the method:
CellTiter-Glo (CTG) is a rapid cell viability test method based on ATP detection. […] Adenosine triphosphate (ATP) participates in various enzymatic reactions in organisms and is an indicator of living cell metabolism. Its content directly reflects the number of living cells and cell status. During the experiment, equal volume of CTG reagent is added to the cultured cells to measure the luminescence value. The chemiluminescent signal value is proportional to the amount of ATP, thus reflecting the number of viable cells. Therefore, cell viability can be obtained by detecting the ATP content. Compounds that affect cell viability will inhibit cell viability in a concentration-dependent manner, allowing a curve to be fitted to obtain the IC50 value.
The experimental procedure is as follows: • 11. Place the cell suspension in a 15 mL centrifuge tube, centrifuge at 1000 rpm for 5 min at room temperature, discard the supernatant, and collect the cell pellet. • 12. Resuspend the cell pellet with preheated complete cell culture medium (RPMI1640+10%FBS+1%PS), and use a Countess® automated cell counter to detect cell viability and density. The cell viability must be above 90%. • 13. […] Transfer the compound solution to a 96-well plate seeded with cells (final concentration of DMSO 0.1%), and place in a cell incubator at 37°C, 5% CO2 for 6 days. • 15. […] Protect from light during the whole process. Perform optical signal readings using a SpectraMax i3x reader. • 16. Data analysis: Remaining activity (%) = 100% * (1 - ((LumDMSO - Lummedium) - Lumsample) / (LumDMSO - LumPBS/medium)). Use GraphPad Prism 9.0 software to draw an S-shaped dose-survival rate curve and calculate the IC50 value using a nonlinear regression model.

As for `COc1cc(Nc2ncc3c(n2)-c2ccc(Cl)cc2C(c2c(F)cccc2OC)=NC3)ccc1C(=O)NCCN1CCC(c2ccc(N3CCC(=O)NC3=O)cc2)CC1` [Compound A15], in assay [1], the “Percentage of AURKA Degradation Induced by 100 nM Compound in Jurkat Cells” value (from here on “Percentage … by 100 nM Compound in Jurkat Cells”) was “+++ (Degradation > 70%)” and the “Percentage of AURKA Degradation Induced by 1 µM Compound in Jurkat Cells” value (from here on “Percentage … by 1 µM Compound in Jurkat Cells”) was “+++ (Degradation > 70%)”. Also, the IC50 in assay [2] was < 1000 nM.

`COc1cc(Nc2ncc3c(n2)-c2ccc(Cl)cc2C(c2c(F)cccc2OC)=NC3)ccc1C(=O)NCCN1CCC(c2ccc(N3CCC(=O)NC3=O)cn2)CC1` [Compound A16]: in assay [1], the “Percentage … by 100 nM Compound in Jurkat Cells” value was “+++ (Degradation > 70%)” and the “Percentage … by 1 µM Compound in Jurkat Cells” value is “++ (30% < Degradation ≤ 70%)”. Moreover, the IC50 in assay [2] was < 1000 nM.

On to `COc1cc(Nc2ncc3c(n2)-c2ccc(Cl)cc2C(c2c(F)cccc2OC)=NC3)ccc1C(=O)NCCN1Cc2cc3c(cc2C1)C(=O)N(C1CCC(=O)NC1=O)C3=O` (stereo not drawn) [Compound A17], for which, in assay [1], the “Percentage … by 100 nM Compound in Jurkat Cells” value is on record as “+ (Degradation ≤ 30%)” and the “Percentage … by 1 µM Compound in Jurkat Cells” value is reported as “+ (Degradation ≤ 30%)”. For the same compound, the IC50 in assay [2] was < 1000 nM.

For the compound `O=C1CCN(c2ccc(N3CCN(C4CN(C(=O)c5ccc(Nc6ncc7c(n6)-c6ccc(Cl)cc6C(c6c(F)cccc6F)=NC7)cc5)C4)CC3)cc2)C(=O)N1` [Compound A19], in assay [1], the “Percentage … by 100 nM Compound in Jurkat Cells” value is “++ (30% < Degradation ≤ 70%)” and the “Percentage … by 1 µM Compound in Jurkat Cells” value is “+ (Degradation ≤ 30%)”. The IC50 in assay [2] is < 1000 nM.

As for `COc1cc(Nc2ncc3c(n2)-c2ccc(Cl)cc2C(c2c(F)cccc2OC)=NC3)ccc1C(=O)NCCN1CCN(c2cccn3c(N4CCC(=O)NC4=O)cnc23)CC1` [Compound A21], in assay [1], the “Percentage … by 100 nM Compound in Jurkat Cells” value was “+++ (Degradation > 70%)” and the “Percentage … by 1 µM Compound in Jurkat Cells” value is “+++ (Degradation > 70%)”. Besides, in assay [2], the IC50 is < 1000 nM.

In the case of `O=C1CCN(c2cnc3c(N4CCN(CCNC(=O)c5ccc(Nc6ncc7c(n6)-c6ccc(Cl)cc6C(c6c(F)cccc6F)=NC7)cc5)CC4)cccn23)C(=O)N1` [Compound A22], in assay [1], the “Percentage … by 100 nM Compound in Jurkat Cells” value is on record as “+++ (Degradation > 70%)” and the “Percentage … by 1 µM Compound in Jurkat Cells” value is given as “+++ (Degradation > 70%)”. Besides, the IC50 in assay [2] was < 1000 nM.

As to `COc1cc(Nc2ncc3c(n2)-c2ccc(Cl)cc2C(c2c(F)cccc2OC)=NC3)ccc1C(=O)NCCN1CCC(n2cnc(N3CCC(=O)NC3=O)c2)CC1` [Compound A23], in assay [1], the “Percentage … by 100 nM Compound in Jurkat Cells” value is given as “+ (Degradation ≤ 30%)” and the “Percentage … by 1 µM Compound in Jurkat Cells” value was “+ (Degradation ≤ 30%)”. The IC50 in assay [2] is < 1000 nM.

As for `COc1cc(Nc2ncc3c(n2)-c2ccc(Cl)cc2C(c2c(F)cccc2OC)=NC3)ccc1C(=O)NCCN1CCN(c2ncc(N3CCC(=O)NC3=O)s2)CC1` [Compound A24], in assay [1], the “Percentage … by 100 nM Compound in Jurkat Cells” value was “+++ (Degradation > 70%)” and the “Percentage … by 1 µM Compound in Jurkat Cells” value is “++ (30% < Degradation ≤ 70%)”. In addition, the IC50 in assay [2] is < 1000 nM.

Take `O=C1CCN(c2cnc(N3CCN(CCNC(=O)c4ccc(Nc5ncc6c(n5)-c5ccc(Cl)cc5C(c5c(F)cccc5F)=NC6)cc4)CC3)s2)C(=O)N1` [Compound A25]: in assay [1], the “Percentage … by 100 nM Compound in Jurkat Cells” value is on record as “+++ (Degradation > 70%)” and the “Percentage … by 1 µM Compound in Jurkat Cells” value is “++ (30% < Degradation ≤ 70%)”. Besides, the IC50 in assay [2] is < 1000 nM.

With `COc1cc(Nc2ncc3c(n2)-c2ccc(Cl)cc2C(c2c(F)cccc2OC)=NC3)ccc1C(=O)NCCC#Cc1ccc(N2CCC(=O)NC2=O)cc1` [Compound A26], in assay [1], the “Percentage … by 100 nM Compound in Jurkat Cells” value is given as “+ (Degradation ≤ 30%)” and the “Percentage … by 1 µM Compound in Jurkat Cells” value is recorded as “+ (Degradation ≤ 30%)”. The IC50 in assay [2] is < 1000 nM.

Consider `COc1cc(Nc2ncc3c(n2)-c2ccc(Cl)cc2C(c2c(F)cccc2OC)=NC3)ccc1C(=O)NCC1CCN(Cc2ccc(N3CCC(=O)NC3=O)cc2)CC1` [Compound A27], for which, in assay [1], the “Percentage … by 100 nM Compound in Jurkat Cells” value is recorded as “+ (Degradation ≤ 30%)” and the “Percentage … by 1 µM Compound in Jurkat Cells” value is given as “+ (Degradation ≤ 30%)”. Moreover, the IC50 in assay [2] was in the range of 1000 to 10000 nM.

As to `COc1cc(Nc2ncc3c(n2)-c2ccc(Cl)cc2C(c2c(F)cccc2OC)=NC3)ccc1C(=O)NC1CCN(Cc2ccc(N3CCC(=O)NC3=O)cc2)CC1` [Compound A28], in assay [1], the “Percentage … by 100 nM Compound in Jurkat Cells” value was “+ (Degradation ≤ 30%)” and the “Percentage … by 1 µM Compound in Jurkat Cells” value is “+ (Degradation ≤ 30%)”. Also, the half-maximal inhibitory concentration (IC50) in assay [2] is < 1000 nM.

In the case of `COc1cc(Nc2ncc3c(n2)-c2ccc(Cl)cc2C(c2c(F)cccc2OC)=NC3)ccc1C(=O)NCCN1CCN(c2ccc(N3CCC(=O)NC3=O)cn2)CC1` [Compound A29], in assay [1], the “Percentage … by 100 nM Compound in Jurkat Cells” value is given as “+++ (Degradation > 70%)” and the “Percentage … by 1 µM Compound in Jurkat Cells” value is listed as “+++ (Degradation > 70%)”. For the same compound, in assay [2], the IC50 was < 1000 nM.

As to `COc1cc(Nc2ncc3c(n2)-c2ccc(Cl)cc2C(c2c(F)cccc2OC)=NC3)ccc1C(=O)NCCN1CCN(c2ccc(N3CCC(=O)NC3=O)nc2)CC1` [Compound A30], in assay [1], the “Percentage … by 100 nM Compound in Jurkat Cells” value was “++ (30% < Degradation ≤ 70%)” and the “Percentage … by 1 µM Compound in Jurkat Cells” value is “++ (30% < Degradation ≤ 70%)”. The IC50 in assay [2] was < 1000 nM.

Turning to `COc1cc(Nc2ncc3c(n2)-c2ccc(Cl)cc2C(c2c(F)cccc2OC)=NC3)ccc1C(=O)NCCOCCNc1ccn2c(N3CCC(=O)NC3=O)cnc2c1` [Compound A32], in assay [1], the “Percentage … by 100 nM Compound in Jurkat Cells” value is on record as “+ (Degradation ≤ 30%)” and the “Percentage … by 1 µM Compound in Jurkat Cells” value is listed as “+ (Degradation ≤ 30%)”. In addition, the 50% inhibitory concentration (IC50) in assay [2] is > 10000 nM.

As for `COc1cc(Nc2ncc3c(n2)-c2ccc(Cl)cc2C(c2c(F)cccc2OC)=NC3)ccc1C(=O)N1CC2(CN(Cc3cccc4c3C(=O)N(C3CCC(=O)NC3=O)C4=O)C2)C1` (stereo not drawn) [Compound A33], in assay [1], the “Percentage … by 100 nM Compound in Jurkat Cells” value is “++ (30% < Degradation ≤ 70%)” and the “Percentage … by 1 µM Compound in Jurkat Cells” value is listed as “++ (30% < Degradation ≤ 70%)”. Further, the IC50 in assay [2] was < 1000 nM.

Regarding `COc1cc(Nc2ncc3c(n2)-c2ccc(Cl)cc2C(c2c(F)cccc2OC)=NC3)ccc1C(=O)N1CC(N(C)CC#Cc2cccc3c2CN(C2CCC(=O)NC2=O)C3=O)C1` (stereo not drawn) [Compound A34], in assay [1], the “Percentage … by 100 nM Compound in Jurkat Cells” value is reported as “++ (30% < Degradation ≤ 70%)” and the “Percentage … by 1 µM Compound in Jurkat Cells” value is reported as “++ (30% < Degradation ≤ 70%)”. The IC50 in assay [2] is < 1000 nM.

On to `COc1cc(Nc2ncc3c(n2)-c2ccc(Cl)cc2C(c2c(F)cccc2OC)=NC3)ccc1C(=O)N1CCC2(CCN(c3ccc(N4CCC(=O)NC4=O)cc3)CC2)C1` [Compound A36], for which, in assay [1], the “Percentage … by 100 nM Compound in Jurkat Cells” value was “+ (Degradation ≤ 30%)” and the “Percentage … by 1 µM Compound in Jurkat Cells” value is listed as “+ (Degradation ≤ 30%)”. Also, the IC50 in assay [2] was < 1000 nM.

In the case of `O=C1CCN(c2ccc(N3CCC4(CC3)CC(NC(=O)c3ccc(Nc5ncc6c(n5)-c5ccc(Cl)cc5C(c5c(F)cccc5F)=NC6)cc3)C4)cc2)C(=O)N1` [Compound A37], in assay [1], the “Percentage … by 100 nM Compound in Jurkat Cells” value was “+++ (Degradation > 70%)” and the “Percentage … by 1 µM Compound in Jurkat Cells” value is listed as “+++ (Degradation > 70%)”. The IC50 in assay [2] was < 1000 nM.

On to `COc1cc(Nc2ncc3c(n2)-c2ccc(Cl)cc2C(c2c(F)cccc2OC)=NC3)ccc1C(=O)NC1CC2(CCN(c3ccc(N4CCC(=O)NC4=O)cc3)CC2)C1` [Compound A38], for which, in assay [1], the “Percentage … by 100 nM Compound in Jurkat Cells” value is “+++ (Degradation > 70%)” and the “Percentage … by 1 µM Compound in Jurkat Cells” value was “+++ (Degradation > 70%)”. The IC50 in assay [2] was < 1000 nM.

For `COc1cc(Nc2ncc3c(n2)-c2ccc(Cl)cc2C(c2c(F)cccc2OC)=NC3)ccc1C(=O)N(C)C1CC2(CCN(c3ccc(N4CCC(=O)NC4=O)cc3)CC2)C1` [Compound A40], in assay [1], the “Percentage … by 100 nM Compound in Jurkat Cells” value is given as “++ (30% < Degradation ≤ 70%)” and the “Percentage … by 1 µM Compound in Jurkat Cells” value was “+ (Degradation ≤ 30%)”. Also, in assay [2], the concentration for half-maximal inhibition (IC50) was < 1000 nM.
